# Measurements published in patent publication US20250169505A1, “INSECT PEST CONTROL BY A MIXTURE OF LURING SUBSTANCES WITH PATHOGENIC BIO-INSECTICIDES” (GREEN PROTECTA SA, priority 2022, published 2025).
# Test system: thrips (Frankliniella occidentalis)
# Assay: Example 1: powder adherence on thrips body
# Format: in vivo
# Conditions: mesh cage, Petri dish filled with powdery carrier
# Description: From 250 individual thrips (Frankliniella occidentalis) sourced from the company Bionema Limited in Swansea, 50 were released in mesh cages where fresh flowers and green beans were growing, and which contained a Petri dish filled with one powdery carriers.
row,Compound,fate of thrips after contact with the powder
1,CCCCCCCCCCCCCCCCCC(=O)O [stearic acid],died thereafter
2,O=C(CO)[C@@H](O)[C@H](O)[C@H](O)CO [fructose],died thereafter
